Several values for one entry are separate records, joined by “and”; a condition that tells them apart may be missing. Equal values may be shown once. Records with an inconclusive call do not appear. Activity calls are given as the source filed them. The rule behind the calls is not given here.
System: C. albicans CaCi-8 + fluconazole, Alamar Blue growth, 48 h
Experiment: resistant C. albicans growth inhibition with fluconazole, dose response, CaCi-8 strain, Alamar Blue fluorescence (AID 2423)

Going from `COc1ccc(-c2nnc(NC(=O)c3ccc(F)cc3)o2)cc1` to `O=C(Nc1nnc(-c2ccc3c(c2)CCCC3)o1)c1ccccc1`, the EC50 rises from 0.246 µM to 0.484 µM (2-fold).

`Oc1ccc(N=Nc2ccc3c(c2)OCCO3)c2ncccc12` and `O=C(N/N=C/c1cc(Br)c(Br)o1)c1ccc2c(c1)OCCO2` are within 1.5-fold of each other in EC50: 0.709 µM for the first, 0.643 µM for the second.

First: CCOc1ccc2nc3cc(NCc4ccc(OC)cc4)ccc3c(N)c2c1
Second: CCCNC(=O)c1ccc2c(=O)c(O)c(-c3ccc(OC)cc3)[nH]c2c1
The EC50 of the first is 1.7-fold higher: 4.28 µM for the first, 2.47 µM for the second.

`Cc1noc2ncnc(Sc3ccc(Cl)cc3)c12` and `Cc1noc2ncnc(Sc3ccc(Br)cc3)c12` are within 1.5-fold of each other in EC50: 2.93 µM for the first, 2.64 µM for the second.

First: CCN1/C(=C/c2sc(-c3ccccc3C)c[n+]2C)Sc2ccccc21
Second: Cc1cc(N/N=C/c2c(O)ccc3ccccc23)nc(-c2ccccc2O)n1
The EC50 of the first is 2.2-fold higher: 0.289 µM for the first, 0.133 µM for the second. The second is the more potent here.

Going from `Cc1cccc(C2CC3(CC(C)(C)NC(=S)N3)Oc3cc(O)ccc32)c1` (stereo unspecified) to `O=[N+]([O-])c1cccc(-c2cc(-c3cc(Br)ccc3O)[nH]n2)c1`, the EC50 falls from 3.97 µM to 0.866 µM (4.6-fold). The second is the more potent here.

First: COc1ccc(-n2nc(C(=O)NCC(=O)NCCC3=CCCCC3)c3ccccc3c2=O)c(OC)c1
Second: COc1ccc(C2c3ccc4ccccc4c3Oc3ncn(CCN4CCOCC4)c(=N)c32)cc1 (stereo unspecified)
The EC50 of the first is 5.1-fold lower: 0.232 µM for the first, 1.18 µM for the second.

Going from `O=c1c2ccccc2nc(/C=C/c2ccc([N+](=O)[O-])o2)n1-c1ccc(O)cc1` to `Cc1ccc(Nc2nc(NCc3ccco3)c3ccccc3n2)cc1`, the EC50 rises from under 0.12 µM to 2.44 µM.

`CN(C)CCCNC(=O)c1ccc(-c2nc(-c3ccc(Cl)cc3)cs2)cc1` and `Cc1ccc(C(=O)CC(=O)COc2ccc(Cl)cc2)cc1` are within 1.5-fold of each other in EC50: 2.61 µM for the first, 2.98 µM for the second.

`CCCC(=O)NC(c1ccc(N(C)C)cc1)c1ccc2cccnc2c1O` (stereo unspecified) and `CCCCC(=O)NC(c1ccco1)c1cc(Cl)c2cccnc2c1O` (stereo unspecified) are within 1.5-fold of each other in EC50: 0.627 µM for the first, 0.625 µM for the second.

Going from `CCc1ccc2c(c1)/C(=C/C(=O)c1cccs1)C(=O)N2` to `CCn1c(O)c(N=NC(=O)c2cccs2)c2ccccc21`, the EC50 falls from 2.38 µM to 1.32 µM (1.8-fold).

Compared with `CCOC(=O)c1sc(Nc2nc3c(OC)cccc3s2)nc1C`, `CCCOc1cccc(-c2nnc(NC(=O)c3ccco3)s2)c1` is 3.1-fold lower in EC50: 1.95 µM for the first, 0.622 µM for the second.

Going from `CN=c1scc(-c2cccs2)n1/N=C/c1ccc(O)c(O)c1O` to `O=C(Cc1nc2ccccc2s1)c1ccc(O)cc1O`, the EC50 falls from 14.5 µM to 2.86 µM (5.1-fold).

First: C/C(=N/NC(=O)c1cc(O)c(O)c(O)c1)c1ccc([N+](=O)[O-])cc1
Second: O=C(Oc1c(Cl)cc(Cl)c2cccnc12)c1cccc([N+](=O)[O-])c1
The EC50 of the first is 11-fold higher: 4.81 µM for the first, 0.444 µM for the second. The second is the more potent here.

First: Cn1c(O)c(/C=N/NC(=O)c2cc3ccccc3cc2O)c2ccccc21
Second: O=C(NCc1ccccc1)c1sc(=S)n2c1[nH]c(=O)c1ccccc12
The EC50 of the first is 5.6-fold higher: 5.35 µM for the first, 0.948 µM for the second.

Going from `CCOC(=O)C(CC)/C(C)=N\NC(=O)c1ccccc1O` (stereo unspecified) to `CCCOc1ccc(C(=O)NNC(=S)NC(C)=O)cc1`, the EC50 falls from 7.82 µM to 1.67 µM (4.7-fold).

Going from `O=[N+]([O-])c1cc(Cl)c2cccnc2c1O` to `CC(C)COCc1ccc(O)c2ncccc12`, the EC50 rises from 0.291 µM to 1.47 µM (5.1-fold).

`Oc1[nH]c2ccc(Br)cc2c1N=NC(=S)N1CCOCC1` and `CCCc1cc(=O)[nH]c(SCC(=O)Nc2ccc(Br)cc2Br)n1` are within 1.5-fold of each other in EC50: 3.1 µM for the first, 2.59 µM for the second.

Going from `CN1CCN(CCCNC(=O)c2ccc(/C=C3\Oc4ccccc4N(Cc4ccc(Cl)cc4)C3=O)cc2)CC1` to `CN1CCN(Cc2cc(COCc3ccccc3)c3cccnc3c2O)CC1`, the EC50 falls from 7.66 µM to 1.46 µM (5.2-fold).

First: Oc1ccccc1N=Nc1ccccc1O
Second: CCC1=NN(C(=O)c2ccccc2O)C(O)(c2ccccc2)C1 (stereo unspecified)
The EC50 of the first is 7.6-fold lower: 0.973 µM for the first, 7.37 µM for the second.

Going from `CCCCCCSc1nnc2[nH]c(=O)cc(N)n12` to `CCn1nc(/C=C/c2ccccc2)nc2c(=O)n(C)c(=O)nc1-2`, the EC50 falls from 1.15 µM to 0.323 µM (3.6-fold).

Going from `NC(=S)n1[nH]c(-c2ccc([N+](=O)[O-])cc2)c(N=Nc2cccc([N+](=O)[O-])c2)c1=O` to `N#Cc1c(-c2ccc(Cl)cc2)cc(-c2ccccc2)nc1SCC(=O)O`, the EC50 falls from 2.83 µM to 1.2 µM (2.4-fold).

Going from `O=C(CCl)N(c1ccc(Cl)cc1)c1c[nH]c2ccccc12` to `CCN(CC)Cc1ccc(NC(=O)c2sc3cc(Cl)ccc3c2Cl)cc1`, the EC50 falls from 6.41 µM to 1.08 µM (5.9-fold).

Going from `Brc1ccc(N/N=C(/N=Nc2nn[nH]n2)c2ccccc2)cc1` to `CCN(c1ccccc1)S(=O)(=O)c1ccc(C(=O)Nc2nnc(C3CC3)o2)cc1`, the EC50 falls from 5.6 µM to 2.22 µM (2.5-fold).

Going from `Cc1ccc(C(=O)c2oc3nc(C)cc(C)c3c2N)cc1` to `Cc1ccc(C(=O)Nc2cccc(-c3cn4ccccc4n3)c2)cc1`, the EC50 falls from 5.28 µM to 0.326 µM (16-fold). The second is the more potent here.

Compared with `Cc1ccc(-n2ncc(Br)c(Br)c2=O)cc1`, `CSc1nc(Cl)c(C#N)c(-c2ccc(C)cc2)n1` is 3.3-fold higher in EC50: 0.855 µM for the first, 2.84 µM for the second. The first is the more potent here.

Going from `Cc1cc(N2C(=O)C(O)=C(C(=O)c3cc4ccccc4o3)C2c2cccs2)no1` (stereo unspecified) to `O=C1c2ccccc2NC(c2ccc(-c3ccc(Br)cc3)o2)N1O` (stereo unspecified), the EC50 falls from 4.08 µM to 2.12 µM (1.9-fold). The second is the more potent here.

First: O=C(NC(=S)NNC(=O)[C@H]1C[C@@H]1c1ccccc1)c1cccc(F)c1
Second: CC(C)CC(=O)NC(=S)NNC(=O)c1ccc(NC(=O)C2CCCCC2)cc1
The EC50 of the first is 2.1-fold higher: 2.56 µM for the first, 1.21 µM for the second. The second is the more potent here.

Compared with `CC(=O)N(Cc1ccc(F)cc1)C1=C(NCc2ccccc2)C(=O)c2ccccc2C1=O`, `Cc1cccc(C2c3[nH]c4ccccc4c3CCN2C(=O)c2cc(-c3cccn3C)n[nH]2)n1` (stereo unspecified) is 1.8-fold higher in EC50: 0.596 µM for the first, 1.05 µM for the second.

`Cc1csc2ncnc(NCCc3ccccn3)c12` and `N#CC1=C(N)Oc2c(ccc3cccnc23)C1c1cccnc1` (stereo unspecified) are within 1.5-fold of each other in EC50: 6.03 µM for the first, 8.92 µM for the second.

Going from `O=[N+]([O-])c1nn(-c2ccc(Cl)cc2)n(O)c1=NCc1cccnc1` to `Clc1ccc(OCCn2ccnc2)c2ccccc12`, the EC50 rises from 1.83 µM to 2.91 µM (1.6-fold).

First: O=[N+]([O-])c1cc(S(=O)(=O)C(F)(F)F)ccc1Sc1nc2ccccc2s1
Second: CC[n+]1c(/C=C/C=C/c2ccc(N(C)C)cc2)sc2ccccc21
The EC50 of the first is higher: 3.2 µM for the first, under 0.12 µM for the second.

Going from `O=C(Nc1nnc(-c2ccc3c(c2)CCCC3)o1)c1ccc(Cl)cc1Cl` to `O=C(/C=C1\NC2(CCCC2)Cc2ccccc21)C(=O)N/N=C/c1ccccc1O`, the EC50 rises from under 0.12 µM to 0.601 µM.

`CC(C(=O)c1ccccc1)[n+]1cccc(Br)c1` (stereo unspecified) was tested, and the EC50 was > 15 µM (inactive).
`Cc1cc(Oc2ccccc2)nc(-c2ccccc2O)n1` was tested, and the EC50 was > 15 µM (inactive).
In the case of `COc1ccc(-[n+]2c(-c3ccccc3)cc(-c3ccc(C)cc3)cc2-c2ccccc2)cc1`, the EC50 is reported as > 15 µM (inactive).
With `CON/C=C(\C=Nc1ccc(Cl)cc1Cl)c1ncc(C(F)(F)F)cc1Cl` the EC50 was > 16 µM (inactive).
For `O=S(=O)(c1ccc(Cl)s1)N1CCCc2cccc(O)c21`, the EC50 was > 15 µM (inactive).
With `CCOC(=O)c1[nH]c2ccc(F)cc2c1NC(=O)c1ccccc1C(=O)O` the EC50 was > 15 µM (inactive).
`O=S(=O)(Cc1ccc(Cl)cc1)N1CCN(Cc2ccccc2)CC1` was tested, and the EC50 was > 16 µM (inactive).
`NC(=NCCCCCCN=C(N)/N=C(\N)Nc1ccc(Cl)cc1)/N=C(\N)Nc1ccc(Cl)cc1` was tested, and the EC50 was 0.741 µM and 1.51 µM and 2.13 µM.
`O=C(Nc1ccccc1N1CCOCC1)c1ccc(S(=O)(=O)NCc2ccco2)cc1` was tested, and the EC50 was > 15 µM (inactive).
In the case of `O=C(CCS(=O)(=O)c1ccccc1)Nc1nnc(C(F)(F)F)s1`, the EC50 is reported as > 16 µM (inactive).
With `CC(C)(C)CC(=O)Nc1nnc(C(F)(F)F)s1` the EC50 was > 16 µM (inactive).
For `CSc1ncc(Cl)c(C(=O)C(C#N)c2nc3c(C)cc(C)cc3c(=O)[nH]2)n1` (stereo unspecified), the EC50 was > 16 µM (inactive).
With `O=C(O)c1cnc(-c2ccccc2)nc1Sc1ccc(Cl)cc1` the EC50 was > 15 µM (inactive).
With `Cc1ccc(-n2c(C)cc(/C([O-])=C(/C(=S)Nc3ccc(F)c(Cl)c3)[n+]3ccccc3)c2C)cc1` the EC50 was > 16 µM (inactive).
For `O=C(CCNC(=O)c1ccc(Br)cc1)Nc1nccs1`, the EC50 was > 15 µM (inactive).

Source: PubChem BioAssay AID2423 (Broad Institute, 2010)
